# Assay results reported in ChEMBL document CHEMBL3627713, “Triazole linked mono carbonyl curcumin-isatin bifunctional hybrids as novel anti tubulin agents: Design, synthesis, biological evaluation and molecular modeling studies” (Bioorg Med Chem, 2015).
# Active and inactive are the calls of the source. The rule behind the calls is not given here.
# System: HCT-116
# Assay: Cytotoxicity against human HCT116 cells assessed as growth inhibition at 50 uM after 48 hrs by sulforhodamine B assay relative to control
# Format: functional
# Details: HCT-116, 48 h, read-out: GI
row,Compound,inhibition of growth at 50 µM
1,COc1ccc(/C=C/C(=O)/C=C/c2ccc(OCc3cn(CCN4C(=O)C(=O)c5cc(Cl)ccc54)nn3)c(OC)c2)cc1OC,79%
2,COc1ccccc1/C=C/C(=O)/C=C/c1ccc(OCc2cn(CCN3C(=O)C(=O)c4ccccc43)nn2)c(OC)c1,75%
3,COc1cc(/C=C/C(=O)/C=C/c2cc(OC)c(OC)c(OC)c2)ccc1OCc1cn(CCN2C(=O)C(=O)c3cc(Cl)ccc32)nn1,89%
4,COc1ccc(/C=C/C(=O)/C=C/c2ccc(OCc3cn(CCN4C(=O)C(=O)c5ccccc54)nn3)c(OC)c2)cc1,81%
5,COc1cc(/C=C/C(=O)/C=C/c2cc(OC)c(OC)c(OC)c2)ccc1OCc1cn(CCN2C(=O)C(=O)c3ccccc32)nn1,99%

# System: HCT-116
# Assay: Cytotoxicity against human HCT116 cells assessed as growth inhibition after 48 hrs by sulforhodamine B assay
# Format: functional, cell-based
# Details: HCT-116, 48 h
row,Compound,IC50
1,COc1ccc(/C=C/C(=O)/C=C/c2ccc(OCc3cn(CCN4C(=O)C(=O)c5cc(Cl)ccc54)nn3)c(OC)c2)cc1OC,6.94 µM
2,COc1ccccc1/C=C/C(=O)/C=C/c1ccc(OCc2cn(CCN3C(=O)C(=O)c4ccccc43)nn2)c(OC)c1,4.56 µM
3,COc1cc(/C=C/C(=O)/C=C/c2cc(OC)c(OC)c(OC)c2)ccc1OCc1cn(CCN2C(=O)C(=O)c3cc(Cl)ccc32)nn1,2.17 µM
4,COc1ccc(/C=C/C(=O)/C=C/c2ccc(OCc3cn(CCN4C(=O)C(=O)c5ccccc54)nn3)c(OC)c2)cc1,3.45 µM
5,COc1cc(/C=C/C(=O)/C=C/c2cc(OC)c(OC)c(OC)c2)ccc1OCc1cn(CCN2C(=O)C(=O)c3ccccc32)nn1,1.12 µM

# System: A549
# Assay: Cytotoxicity against human A549 cells assessed as growth inhibition at 50 uM after 48 hrs by sulforhodamine B assay relative to control
# Format: functional
# Details: A549, 48 h, read-out: GI
row,Compound,inhibition of growth at 50 µM
1,COc1ccc(/C=C/C(=O)/C=C/c2ccc(OCc3cn(CCN4C(=O)C(=O)c5cc(Cl)ccc54)nn3)c(OC)c2)cc1OC,17%
2,COc1ccccc1/C=C/C(=O)/C=C/c1ccc(OCc2cn(CCN3C(=O)C(=O)c4ccccc43)nn2)c(OC)c1,11%
3,COc1cc(/C=C/C(=O)/C=C/c2cc(OC)c(OC)c(OC)c2)ccc1OCc1cn(CCN2C(=O)C(=O)c3cc(Cl)ccc32)nn1,22%
4,COc1ccc(/C=C/C(=O)/C=C/c2ccc(OCc3cn(CCN4C(=O)C(=O)c5ccccc54)nn3)c(OC)c2)cc1,15%
5,COc1cc(/C=C/C(=O)/C=C/c2cc(OC)c(OC)c(OC)c2)ccc1OCc1cn(CCN2C(=O)C(=O)c3ccccc32)nn1,22%

# System: HeLa
# Assay: Cytotoxicity against human HeLa cells assessed as growth inhibition at 50 uM after 48 hrs by sulforhodamine B assay relative to control
# Format: functional
# Details: read-out: GI
row,Compound,inhibition of growth at 50 µM
1,COc1ccc(/C=C/C(=O)/C=C/c2ccc(OCc3cn(CCN4C(=O)C(=O)c5cc(Cl)ccc54)nn3)c(OC)c2)cc1OC,13%
2,COc1ccccc1/C=C/C(=O)/C=C/c1ccc(OCc2cn(CCN3C(=O)C(=O)c4ccccc43)nn2)c(OC)c1,12%
3,COc1cc(/C=C/C(=O)/C=C/c2cc(OC)c(OC)c(OC)c2)ccc1OCc1cn(CCN2C(=O)C(=O)c3cc(Cl)ccc32)nn1,15%
4,COc1ccc(/C=C/C(=O)/C=C/c2ccc(OCc3cn(CCN4C(=O)C(=O)c5ccccc54)nn3)c(OC)c2)cc1,15%
5,COc1cc(/C=C/C(=O)/C=C/c2cc(OC)c(OC)c(OC)c2)ccc1OCc1cn(CCN2C(=O)C(=O)c3ccccc32)nn1,20%

# System: not listed separately
# Assay: Cytotoxicity against human MIAPaCa2 cells assessed as growth inhibition at 50 uM after 48 hrs by sulforhodamine B assay relative to control
# Format: functional
# Details: MIA PaCa-2, 48 h, read-out: GI
row,Compound,inhibition of growth at 50 µM
1,COc1ccc(/C=C/C(=O)/C=C/c2ccc(OCc3cn(CCN4C(=O)C(=O)c5cc(Cl)ccc54)nn3)c(OC)c2)cc1OC,12%
2,COc1ccccc1/C=C/C(=O)/C=C/c1ccc(OCc2cn(CCN3C(=O)C(=O)c4ccccc43)nn2)c(OC)c1,13%
3,COc1cc(/C=C/C(=O)/C=C/c2cc(OC)c(OC)c(OC)c2)ccc1OCc1cn(CCN2C(=O)C(=O)c3cc(Cl)ccc32)nn1,13%
4,COc1ccc(/C=C/C(=O)/C=C/c2ccc(OCc3cn(CCN4C(=O)C(=O)c5ccccc54)nn3)c(OC)c2)cc1,17%
5,COc1cc(/C=C/C(=O)/C=C/c2cc(OC)c(OC)c(OC)c2)ccc1OCc1cn(CCN2C(=O)C(=O)c3ccccc32)nn1,25%

# System: THP-1
# Assay: Cytotoxicity against human THP1 cells assessed as growth inhibition at 50 uM after 48 hrs by sulforhodamine B assay relative to control
# Format: functional
# Details: THP-1, 48 h, read-out: GI
row,Compound,inhibition of growth at 50 µM
1,COc1ccc(/C=C/C(=O)/C=C/c2ccc(OCc3cn(CCN4C(=O)C(=O)c5cc(Cl)ccc54)nn3)c(OC)c2)cc1OC,77%
2,COc1ccccc1/C=C/C(=O)/C=C/c1ccc(OCc2cn(CCN3C(=O)C(=O)c4ccccc43)nn2)c(OC)c1,70%
3,COc1cc(/C=C/C(=O)/C=C/c2cc(OC)c(OC)c(OC)c2)ccc1OCc1cn(CCN2C(=O)C(=O)c3cc(Cl)ccc32)nn1,86%
4,COc1ccc(/C=C/C(=O)/C=C/c2ccc(OCc3cn(CCN4C(=O)C(=O)c5ccccc54)nn3)c(OC)c2)cc1,75%
5,COc1cc(/C=C/C(=O)/C=C/c2cc(OC)c(OC)c(OC)c2)ccc1OCc1cn(CCN2C(=O)C(=O)c3ccccc32)nn1,89%

# System: THP-1
# Assay: Cytotoxicity against human THP1 cells assessed as growth inhibition after 48 hrs by sulforhodamine B assay
# Format: functional, cell-based
# Details: THP-1, 48 h
row,Compound,IC50
1,COc1ccc(/C=C/C(=O)/C=C/c2ccc(OCc3cn(CCN4C(=O)C(=O)c5cc(Cl)ccc54)nn3)c(OC)c2)cc1OC,9.33 µM
2,COc1ccccc1/C=C/C(=O)/C=C/c1ccc(OCc2cn(CCN3C(=O)C(=O)c4ccccc43)nn2)c(OC)c1,6.34 µM
3,COc1cc(/C=C/C(=O)/C=C/c2cc(OC)c(OC)c(OC)c2)ccc1OCc1cn(CCN2C(=O)C(=O)c3cc(Cl)ccc32)nn1,4.56 µM
4,COc1ccc(/C=C/C(=O)/C=C/c2ccc(OCc3cn(CCN4C(=O)C(=O)c5ccccc54)nn3)c(OC)c2)cc1,4.96 µM
5,COc1cc(/C=C/C(=O)/C=C/c2cc(OC)c(OC)c(OC)c2)ccc1OCc1cn(CCN2C(=O)C(=O)c3ccccc32)nn1,2.87 µM

# System: HCT-116
# Assay: Disruption of microtubule organization in human HCT116 cells at 5 uM after 48 hrs by DAPI staining-based laser scanning confocal microscopic analysis
# Format: cell-based
# Details: not given
row,Compound,Activity
1,COc1cc(/C=C/C(=O)/C=C/c2cc(OC)c(OC)c(OC)c2)ccc1OCc1cn(CCN2C(=O)C(=O)c3ccccc32)nn1,Active

# Target: Tubulin
# Assay: Inhibition of tubulin (unknown origin) polymerization after 1 hr by ELISA plate reader analysis
# Format: protein-complex assay, Homo sapiens
# Details: not given
row,IC50,Compound
1,5.41 µM,COc1ccc(/C=C/C(=O)/C=C/c2ccc(OCc3cn(CCN4C(=O)C(=O)c5ccccc54)nn3)c(OC)c2)cc1
2,2.36 µM,COc1cc(/C=C/C(=O)/C=C/c2cc(OC)c(OC)c(OC)c2)ccc1OCc1cn(CCN2C(=O)C(=O)c3ccccc32)nn1

# System: PC-3
# Assay: Cytotoxicity against human PC3 cells assessed as growth inhibition after 48 hrs by sulforhodamine B assay
# Format: functional, cell-based
# Details: PC-3, 48 h
row,Compound,IC50
1,COc1ccc(/C=C/C(=O)/C=C/c2ccc(OCc3cn(CCN4C(=O)C(=O)c5cc(Cl)ccc54)nn3)c(OC)c2)cc1OC,13.7 µM
2,COc1ccccc1/C=C/C(=O)/C=C/c1ccc(OCc2cn(CCN3C(=O)C(=O)c4ccccc43)nn2)c(OC)c1,8.97 µM
3,COc1cc(/C=C/C(=O)/C=C/c2cc(OC)c(OC)c(OC)c2)ccc1OCc1cn(CCN2C(=O)C(=O)c3cc(Cl)ccc32)nn1,7.14 µM
4,COc1ccc(/C=C/C(=O)/C=C/c2ccc(OCc3cn(CCN4C(=O)C(=O)c5ccccc54)nn3)c(OC)c2)cc1,8.95 µM
5,COc1cc(/C=C/C(=O)/C=C/c2cc(OC)c(OC)c(OC)c2)ccc1OCc1cn(CCN2C(=O)C(=O)c3ccccc32)nn1,5.67 µM

# System: COLO 205
# Assay: Cytotoxicity against human COLO205 cells assessed as growth inhibition at 50 uM after 48 hrs by sulforhodamine B assay relative to control
# Format: functional
# Details: COLO 205, 48 h, read-out: GI
row,Compound,inhibition of growth at 50 µM
1,COc1ccc(/C=C/C(=O)/C=C/c2ccc(OCc3cn(CCN4C(=O)C(=O)c5cc(Cl)ccc54)nn3)c(OC)c2)cc1OC,75%
2,COc1ccccc1/C=C/C(=O)/C=C/c1ccc(OCc2cn(CCN3C(=O)C(=O)c4ccccc43)nn2)c(OC)c1,67%
3,COc1cc(/C=C/C(=O)/C=C/c2cc(OC)c(OC)c(OC)c2)ccc1OCc1cn(CCN2C(=O)C(=O)c3cc(Cl)ccc32)nn1,84%
4,COc1ccc(/C=C/C(=O)/C=C/c2ccc(OCc3cn(CCN4C(=O)C(=O)c5ccccc54)nn3)c(OC)c2)cc1,72%
5,COc1cc(/C=C/C(=O)/C=C/c2cc(OC)c(OC)c(OC)c2)ccc1OCc1cn(CCN2C(=O)C(=O)c3ccccc32)nn1,86%

# System: PC-3
# Assay: Cytotoxicity against human PC3 cells assessed as growth inhibition at 50 uM after 48 hrs by sulforhodamine B assay relative to control
# Format: functional
# Details: PC-3, 48 h, read-out: GI
row,Compound,inhibition of growth at 50 µM
1,COc1ccc(/C=C/C(=O)/C=C/c2ccc(OCc3cn(CCN4C(=O)C(=O)c5cc(Cl)ccc54)nn3)c(OC)c2)cc1OC,73%
2,COc1ccccc1/C=C/C(=O)/C=C/c1ccc(OCc2cn(CCN3C(=O)C(=O)c4ccccc43)nn2)c(OC)c1,64%
3,COc1cc(/C=C/C(=O)/C=C/c2cc(OC)c(OC)c(OC)c2)ccc1OCc1cn(CCN2C(=O)C(=O)c3cc(Cl)ccc32)nn1,80%
4,COc1ccc(/C=C/C(=O)/C=C/c2ccc(OCc3cn(CCN4C(=O)C(=O)c5ccccc54)nn3)c(OC)c2)cc1,70%
5,COc1cc(/C=C/C(=O)/C=C/c2cc(OC)c(OC)c(OC)c2)ccc1OCc1cn(CCN2C(=O)C(=O)c3ccccc32)nn1,85%

# System: CAKI-1
# Assay: Cytotoxicity against human Caki1 cells assessed as growth inhibition at 50 uM after 48 hrs by sulforhodamine B assay relative to control
# Format: functional
# Details: CAKI-1, 48 h, read-out: GI
row,Compound,inhibition of growth at 50 µM
1,COc1ccc(/C=C/C(=O)/C=C/c2ccc(OCc3cn(CCN4C(=O)C(=O)c5cc(Cl)ccc54)nn3)c(OC)c2)cc1OC,10%
2,COc1ccccc1/C=C/C(=O)/C=C/c1ccc(OCc2cn(CCN3C(=O)C(=O)c4ccccc43)nn2)c(OC)c1,15%
3,COc1cc(/C=C/C(=O)/C=C/c2cc(OC)c(OC)c(OC)c2)ccc1OCc1cn(CCN2C(=O)C(=O)c3cc(Cl)ccc32)nn1,13%
4,COc1ccc(/C=C/C(=O)/C=C/c2ccc(OCc3cn(CCN4C(=O)C(=O)c5ccccc54)nn3)c(OC)c2)cc1,20%
5,COc1cc(/C=C/C(=O)/C=C/c2cc(OC)c(OC)c(OC)c2)ccc1OCc1cn(CCN2C(=O)C(=O)c3ccccc32)nn1,25%

# System: COLO 205
# Assay: Cytotoxicity against human COLO205 cells assessed as growth inhibition after 48 hrs by sulforhodamine B assay
# Format: functional, cell-based
# Details: COLO 205, 48 h
row,Compound,IC50
1,COc1ccc(/C=C/C(=O)/C=C/c2ccc(OCc3cn(CCN4C(=O)C(=O)c5cc(Cl)ccc54)nn3)c(OC)c2)cc1OC,11.5 µM
2,COc1ccccc1/C=C/C(=O)/C=C/c1ccc(OCc2cn(CCN3C(=O)C(=O)c4ccccc43)nn2)c(OC)c1,8.16 µM
3,COc1cc(/C=C/C(=O)/C=C/c2cc(OC)c(OC)c(OC)c2)ccc1OCc1cn(CCN2C(=O)C(=O)c3cc(Cl)ccc32)nn1,5.97 µM
4,COc1ccc(/C=C/C(=O)/C=C/c2ccc(OCc3cn(CCN4C(=O)C(=O)c5ccccc54)nn3)c(OC)c2)cc1,6.72 µM
5,COc1cc(/C=C/C(=O)/C=C/c2cc(OC)c(OC)c(OC)c2)ccc1OCc1cn(CCN2C(=O)C(=O)c3ccccc32)nn1,4.15 µM
